The text below walks through data of ChEMBL document CHEMBL3991601, “The target landscape of clinical kinase drugs” (Science, 2017).

In test [1] the target is Cyclin-dependent kinase 17 (Homo sapiens, UniProt Q00537).
Test [2] addresses T1, Acyl-CoA dehydrogenase family member 11 (Homo sapiens, UniProt Q709F0).
T1 sequence (Q709F0 whole entry): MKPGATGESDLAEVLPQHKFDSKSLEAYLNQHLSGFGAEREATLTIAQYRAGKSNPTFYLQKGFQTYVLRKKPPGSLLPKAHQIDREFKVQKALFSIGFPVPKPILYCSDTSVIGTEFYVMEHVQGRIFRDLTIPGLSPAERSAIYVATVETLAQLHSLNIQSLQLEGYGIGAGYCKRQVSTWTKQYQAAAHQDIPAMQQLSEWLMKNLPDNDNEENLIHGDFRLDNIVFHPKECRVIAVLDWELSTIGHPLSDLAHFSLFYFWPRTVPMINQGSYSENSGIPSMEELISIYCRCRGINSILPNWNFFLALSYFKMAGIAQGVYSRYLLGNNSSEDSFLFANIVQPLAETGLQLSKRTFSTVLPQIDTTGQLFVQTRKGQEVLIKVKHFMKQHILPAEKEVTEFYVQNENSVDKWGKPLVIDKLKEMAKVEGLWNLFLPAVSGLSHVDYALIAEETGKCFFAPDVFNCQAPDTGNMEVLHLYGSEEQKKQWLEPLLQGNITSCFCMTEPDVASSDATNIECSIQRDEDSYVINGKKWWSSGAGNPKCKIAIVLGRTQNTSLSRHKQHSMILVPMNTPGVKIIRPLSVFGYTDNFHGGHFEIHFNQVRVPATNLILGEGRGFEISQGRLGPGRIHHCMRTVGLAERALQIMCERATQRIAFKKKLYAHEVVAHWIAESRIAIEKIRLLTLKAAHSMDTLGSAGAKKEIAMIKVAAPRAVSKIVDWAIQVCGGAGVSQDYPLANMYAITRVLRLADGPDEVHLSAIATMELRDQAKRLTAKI

In the next test the target is T2, Pyridoxal kinase (Homo sapiens, UniProt O00764).
T2 sequence (O00764 whole entry): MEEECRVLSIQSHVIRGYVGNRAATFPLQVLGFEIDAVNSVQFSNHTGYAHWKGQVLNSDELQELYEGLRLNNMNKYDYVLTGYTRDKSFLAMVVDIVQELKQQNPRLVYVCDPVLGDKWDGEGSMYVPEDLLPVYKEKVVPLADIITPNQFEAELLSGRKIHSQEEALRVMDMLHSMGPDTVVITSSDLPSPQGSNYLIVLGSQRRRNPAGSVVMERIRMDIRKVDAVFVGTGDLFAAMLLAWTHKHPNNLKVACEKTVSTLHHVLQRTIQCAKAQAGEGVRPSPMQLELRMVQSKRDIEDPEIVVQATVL

Test [3] concerns the target T3, DNA replication licensing factor MCM4 (Homo sapiens, UniProt P33991).
T3 sequence (P33991 whole entry): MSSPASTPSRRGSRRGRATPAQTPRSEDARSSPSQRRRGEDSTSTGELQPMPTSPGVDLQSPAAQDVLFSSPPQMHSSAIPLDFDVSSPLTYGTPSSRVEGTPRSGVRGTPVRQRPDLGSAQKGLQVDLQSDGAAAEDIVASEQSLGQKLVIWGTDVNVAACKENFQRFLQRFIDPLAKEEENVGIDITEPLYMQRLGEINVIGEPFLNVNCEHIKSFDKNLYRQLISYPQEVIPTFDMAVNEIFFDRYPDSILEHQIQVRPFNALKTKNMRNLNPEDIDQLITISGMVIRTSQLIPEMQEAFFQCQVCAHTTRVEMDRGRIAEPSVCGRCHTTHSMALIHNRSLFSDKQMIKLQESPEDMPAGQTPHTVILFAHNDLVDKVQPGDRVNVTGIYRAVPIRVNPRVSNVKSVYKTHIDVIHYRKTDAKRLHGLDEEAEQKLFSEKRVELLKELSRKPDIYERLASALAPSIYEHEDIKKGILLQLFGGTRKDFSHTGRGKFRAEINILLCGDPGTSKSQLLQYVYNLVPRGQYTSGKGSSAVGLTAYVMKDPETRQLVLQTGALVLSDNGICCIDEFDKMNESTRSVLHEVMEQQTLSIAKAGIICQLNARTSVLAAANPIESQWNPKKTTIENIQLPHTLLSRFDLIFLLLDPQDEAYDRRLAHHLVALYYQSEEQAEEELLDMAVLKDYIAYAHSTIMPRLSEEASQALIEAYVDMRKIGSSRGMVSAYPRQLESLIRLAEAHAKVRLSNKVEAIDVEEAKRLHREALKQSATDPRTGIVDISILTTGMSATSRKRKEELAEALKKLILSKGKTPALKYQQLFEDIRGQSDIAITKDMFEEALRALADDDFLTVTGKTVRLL

The target in test [4] is T4, Phosphatidylinositol 5-phosphate 4-kinase type-2 gamma (Homo sapiens, UniProt Q8TBX8).
T4 sequence (Q8TBX8 whole entry): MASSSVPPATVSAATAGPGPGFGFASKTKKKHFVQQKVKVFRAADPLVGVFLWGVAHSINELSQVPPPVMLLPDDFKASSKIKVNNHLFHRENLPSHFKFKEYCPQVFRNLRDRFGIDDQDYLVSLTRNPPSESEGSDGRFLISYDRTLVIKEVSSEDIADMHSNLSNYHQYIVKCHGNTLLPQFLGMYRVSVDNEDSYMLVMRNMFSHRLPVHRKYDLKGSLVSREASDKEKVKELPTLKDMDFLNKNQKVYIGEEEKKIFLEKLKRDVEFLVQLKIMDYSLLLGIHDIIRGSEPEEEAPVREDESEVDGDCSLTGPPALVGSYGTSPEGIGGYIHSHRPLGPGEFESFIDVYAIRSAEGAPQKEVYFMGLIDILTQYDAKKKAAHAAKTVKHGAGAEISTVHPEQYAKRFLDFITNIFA

The target of test [5] is Calcium/calmodulin-dependent protein kinase type II subunit gamma (Homo sapiens, UniProt Q13555).
Test [6] concerns the target STE20-like serine/threonine-protein kinase (Homo sapiens, UniProt Q9H2G2).

SMILES strings stand for the structures. Calls of active or inactive are those of the source. For most assays here, no stated cut-off is given here; in the data, actives have a measured Kd and inactives only a lower limit.

Cyclin-dependent kinase 17, sequence (Q00537 whole entry): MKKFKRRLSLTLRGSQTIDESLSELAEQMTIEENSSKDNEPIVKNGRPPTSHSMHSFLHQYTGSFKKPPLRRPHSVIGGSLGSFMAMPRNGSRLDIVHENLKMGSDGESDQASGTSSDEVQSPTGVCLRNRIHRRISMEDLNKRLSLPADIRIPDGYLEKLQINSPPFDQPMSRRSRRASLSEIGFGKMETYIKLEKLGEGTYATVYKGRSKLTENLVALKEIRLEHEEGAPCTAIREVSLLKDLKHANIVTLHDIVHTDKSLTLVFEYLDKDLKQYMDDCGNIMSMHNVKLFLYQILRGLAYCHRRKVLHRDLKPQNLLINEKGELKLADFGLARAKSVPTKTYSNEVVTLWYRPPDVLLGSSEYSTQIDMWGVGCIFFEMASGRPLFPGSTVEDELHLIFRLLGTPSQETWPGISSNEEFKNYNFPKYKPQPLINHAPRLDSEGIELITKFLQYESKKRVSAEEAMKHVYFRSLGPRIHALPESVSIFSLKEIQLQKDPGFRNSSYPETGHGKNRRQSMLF
Calcium/calmodulin-dependent protein kinase type II subunit gamma, sequence (Q13555 whole entry): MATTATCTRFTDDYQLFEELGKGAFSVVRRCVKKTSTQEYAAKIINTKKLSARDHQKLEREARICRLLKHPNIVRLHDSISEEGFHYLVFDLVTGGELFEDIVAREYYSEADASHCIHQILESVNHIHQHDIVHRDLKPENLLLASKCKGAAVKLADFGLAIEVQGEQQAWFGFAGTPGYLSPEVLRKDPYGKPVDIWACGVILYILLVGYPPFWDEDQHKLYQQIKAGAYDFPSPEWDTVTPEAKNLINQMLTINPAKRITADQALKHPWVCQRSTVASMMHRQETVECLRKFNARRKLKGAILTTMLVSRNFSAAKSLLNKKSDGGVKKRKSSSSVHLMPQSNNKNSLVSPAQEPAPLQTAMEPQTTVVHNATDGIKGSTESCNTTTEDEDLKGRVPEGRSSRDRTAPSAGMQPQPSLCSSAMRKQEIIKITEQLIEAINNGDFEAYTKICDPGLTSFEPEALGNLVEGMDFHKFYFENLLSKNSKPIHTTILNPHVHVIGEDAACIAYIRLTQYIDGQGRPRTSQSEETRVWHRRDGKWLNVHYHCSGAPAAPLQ
STE20-like serine/threonine-protein kinase, sequence (Q9H2G2 whole entry): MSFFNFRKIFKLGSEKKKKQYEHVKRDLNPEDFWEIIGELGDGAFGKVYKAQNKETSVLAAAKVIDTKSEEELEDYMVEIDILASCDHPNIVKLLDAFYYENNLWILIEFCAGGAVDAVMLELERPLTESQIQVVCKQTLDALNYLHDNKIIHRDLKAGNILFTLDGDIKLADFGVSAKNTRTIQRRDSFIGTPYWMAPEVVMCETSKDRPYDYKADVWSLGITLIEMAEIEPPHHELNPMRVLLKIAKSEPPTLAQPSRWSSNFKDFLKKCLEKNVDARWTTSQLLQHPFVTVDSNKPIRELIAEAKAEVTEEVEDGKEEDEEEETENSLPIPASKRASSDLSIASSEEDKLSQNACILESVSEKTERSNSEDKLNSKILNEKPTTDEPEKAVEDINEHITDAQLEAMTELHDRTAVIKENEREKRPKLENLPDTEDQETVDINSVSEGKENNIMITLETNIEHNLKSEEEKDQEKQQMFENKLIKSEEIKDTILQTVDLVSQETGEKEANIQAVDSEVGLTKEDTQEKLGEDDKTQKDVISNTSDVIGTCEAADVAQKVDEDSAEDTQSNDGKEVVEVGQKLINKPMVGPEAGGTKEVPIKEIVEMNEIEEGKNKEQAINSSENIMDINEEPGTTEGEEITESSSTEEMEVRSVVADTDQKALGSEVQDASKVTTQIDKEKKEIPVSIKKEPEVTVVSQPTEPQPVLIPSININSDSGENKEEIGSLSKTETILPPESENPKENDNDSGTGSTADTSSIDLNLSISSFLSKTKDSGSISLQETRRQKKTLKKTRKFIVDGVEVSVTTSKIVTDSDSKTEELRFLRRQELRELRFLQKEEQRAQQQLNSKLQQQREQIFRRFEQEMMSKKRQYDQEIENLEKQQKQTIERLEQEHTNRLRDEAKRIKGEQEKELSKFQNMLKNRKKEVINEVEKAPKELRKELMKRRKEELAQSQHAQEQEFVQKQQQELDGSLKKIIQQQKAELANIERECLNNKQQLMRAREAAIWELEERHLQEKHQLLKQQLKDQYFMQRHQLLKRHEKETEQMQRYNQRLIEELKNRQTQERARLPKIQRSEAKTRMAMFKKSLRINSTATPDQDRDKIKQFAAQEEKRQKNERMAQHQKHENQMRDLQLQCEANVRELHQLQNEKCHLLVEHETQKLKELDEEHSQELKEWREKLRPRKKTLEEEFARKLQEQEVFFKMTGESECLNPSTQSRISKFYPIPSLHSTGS

As to `CCOc1cc2ncc(C#N)c(Nc3ccc(F)c(Cl)c3)c2cc1NC(=O)/C=C/CN(C)C` [PELITINIB], the Kd (in test [1]; in test [2]; at Pyridoxal kinase; in test [3]; in test [4]; in test [5]) was > 30 µM (inactive) throughout. Also, the Kd in test [6] is > 30 µM (inactive).
For the compound `Cc1nc(Nc2n[nH]c3c2CN(C(=O)N[C@H](CN(C)C)c2ccccc2)C3(C)C)c2sccc2n1` [PF-03758309], the dissociation constant (Kd) was 0.014 µM (active) in test [1]; > 30 µM (inactive) in test [2]; > 30 µM (inactive) at Pyridoxal kinase; > 30 µM (inactive) in test [3]; > 30 µM (inactive) in test [4]; 0.275 µM (active) in test [5]. The Kd in test [6] was > 30 µM (inactive).
Take `Cc1cnc(NC(=O)Nc2cc(Br)c(C)cc2OC[C@@H]2CNCCO2)cn1` [RABUSERTIB]: the Kd (in test [1]; in test [2]; at Pyridoxal kinase; in test [3]; in test [4]; in test [5]) was > 30 µM (inactive) throughout. For the same compound, the Kd in test [6] is > 30 µM (inactive).
Turning to `CO[C@H]1C[C@@H]2CC[C@@H](C)[C@@](O)(O2)C(=O)C(=O)N2CCCC[C@H]2C(=O)O[C@H]([C@H](C)C[C@@H]2CC[C@@H](OP(C)(C)=O)[C@H](OC)C2)CC(=O)[C@H](C)/C=C(\C)[C@@H](O)[C@@H](OC)C(=O)[C@H](C)C[C@H](C)/C=C/C=C/C=C/1C` [RIDAFOROLIMUS], the Kd (in test [1]; in test [2]; at Pyridoxal kinase; in test [3]; in test [4]; in test [5]) was > 30 µM (inactive) in each case. In addition, in test [6], the Kd is > 30 µM (inactive).
Take `N#CC1(c2ccc(NC(=O)c3cccnc3NCc3ccncc3)cc2)CCCC1` [RIVOCERANIB]: the Kd (in test [1]; in test [2]; on Pyridoxal kinase; in test [3]; in test [4]; in test [5]) was > 30 µM (inactive) each time. Further, in test [6], the Kd is > 30 µM (inactive).
Turning to `O=c1[nH]ccc2cc(OC3CCNCC3)ccc12` [SAR-407899 FREE BASE], the Kd (in test [1]; in test [2]; at Pyridoxal kinase; in test [3]; in test [4]; in test [5]) was > 30 µM (inactive) in each case. Moreover, the Kd in test [6] is > 30 µM (inactive).
As for `Cn1cc(-c2cnn3c(N)c(Br)c([C@@H]4CCCNC4)nc23)cn1` [SCH-900776], the Kd (in test [1]; in test [2]; on Pyridoxal kinase; in test [3]; in test [4]; in test [5]) was > 30 µM (inactive) in each case. For the same compound, in test [6], the equilibrium dissociation constant (Kd) is 2.08 µM (active).
On to `CO[C@H]1C[C@@H]2CC[C@@H](C)[C@@](O)(O2)C(=O)C(=O)N2CCCC[C@H]2C(=O)O[C@H]([C@H](C)C[C@@H]2CC[C@@H](O)[C@H](OC)C2)CC(=O)[C@H](C)/C=C(\C)[C@@H](O)[C@@H](OC)C(=O)[C@H](C)C[C@H](C)/C=C/C=C/C=C/1C` [SIROLIMUS], for which the Kd (in test [1]; in test [2]; on Pyridoxal kinase; in test [3]; in test [4]; in test [5]) was > 30 µM (inactive) in each case. For the same compound, the Kd in test [6] is > 30 µM (inactive).
Regarding `CCS(=O)(=O)c1cccc(-c2cc(C(=O)NC3CCN(C)CC3)c(C)c3[nH]c4ncc(C)cc4c23)c1` [TAK-901], the Kd (in test [1]; in test [2]; at Pyridoxal kinase; in test [3]; in test [4]; in test [5]) was > 30 µM (inactive) throughout. Moreover, the equilibrium dissociation constant (Kd) in test [6] is 1.35 µM (active).
For the compound `CO[C@H]1C[C@@H]2CC[C@@H](C)[C@@](O)(O2)C(=O)C(=O)N2CCCC[C@H]2C(=O)O[C@H]([C@H](C)C[C@@H]2CC[C@@H](OC(=O)C(C)(CO)CO)[C@H](OC)C2)CC(=O)[C@H](C)/C=C(\C)[C@@H](O)[C@@H](OC)C(=O)[C@H](C)C[C@H](C)/C=C/C=C/C=C/1C` [TEMSIROLIMUS], the Kd (in test [1]; in test [2]; on Pyridoxal kinase; in test [3]; in test [4]; in test [5]) was > 30 µM (inactive) throughout. Further, the Kd in test [6] is > 30 µM (inactive).
For `COc1cc2c(Nc3ccc(Cl)c(Cl)c3F)ncnc2cc1OC[C@@H]1C[C@@H]2CN(C)C[C@@H]2C1` [TESEVATINIB], the Kd (in test [1]; in test [2]; at Pyridoxal kinase; in test [3]; in test [4]; in test [5]) was > 30 µM (inactive) in each case. In test [6], the equilibrium dissociation constant (Kd) was 3.42 µM (active).
On to `O=C(Cc1ccc(-c2ccc(OCCN3CCOCC3)cc2)cn1)NCc1ccccc1` [TIRBANIBULIN], for which the Kd (in test [1]; in test [2]; on Pyridoxal kinase; in test [3]; in test [4]; in test [5]) was > 30 µM (inactive) in each case. Besides, in test [6], the Kd was > 30 µM (inactive).
In the case of `O=C1NC(=O)[C@@H](c2cn3c4c(cccc24)CCC3)[C@@H]1c1c[nH]c2ccccc12` [TIVANTINIB], the Kd (in test [1]; in test [2]; on Pyridoxal kinase; in test [3]; in test [4]; in test [5]) was > 30 µM (inactive) each time. In addition, the Kd in test [6] was > 30 µM (inactive).
